Experimental data from paper PMC8348996, “pH-sensitive dual drug loaded janus nanoparticles by oral delivery for multimodal analgesia” (Journal of Nanobiotechnology, 2021).
Read-outs that look alike come from different tables or passages of the source.

Tests used:
[1] = system: Caco-2/HT29-MTX monolayers; experiment: Trans-monolayer transport; format: in vitro ADME; details: Caco2-HT29/MTX cell model, AP to BL, 4 h
Protocol: (§1) Caco-2, Caco-2/HT29-MTX (7/3), and Caco-2/HT29-MTX/Raji cell models were established for the trans-monolayer transport study, as previously described. The assay was carried out from the AP side (pH 6.5) to the BL side (pH 7.4) using HBSS-HEPES buffer. […] At 0, 0.5, 1, 2, and 4 h, a certain amount of sample was taken from the basolateral compartment, and the same volume of HBSS-HEPES buffer was added.

[2] = system: Caco-2/HT29-MTX/Raji monolayers; experiment: Trans-monolayer transport; format: in vitro ADME; details: Caco2-HT29/MTX-Raji cell model, AP to BL, 4 h
Protocol: as §1

Caco-2 monolayers = experiment: Trans-monolayer transport; format: in vitro ADME; details: Caco-2 cell model, AP to BL, 4 h
Protocol: as §1

[3] = Lymphatic transport in mesenteric lymph-cannulated rats; format: in vivo, SD rats
Protocol: The methods of mesenteric lymphatic intubation were based on previous studies. Briefly, SD rats (300–350 g) were given 2 mL peanut oil via gavage 1 h before administration to induce lymphoid production. One hour later, the animals were anesthetized via intraperitoneal injection of 50 mg·kg^−1 pentobarbital sodium. The rats were placed in the supine position on the ventral side and their limbs were fixed. A midline abdominal incision (approximately 4 cm long) was made at 2/3 of the line connecting the xiphoid and pubic symphysis. […] The trunk of the mesenteric lymphatic vessels (approximately 1 cm) was then separated. A 4-mm PE-25 pipe with a PE-50 hose was connected, the joint of each pipe was fully fixed, and the pipe was filled with 1% EDTA-2Na. […] A small incision was made in the mesenteric lymphatic vessel, and the PE-25 tube end was intubated. When the lymphatic fluid completely filled the tube and drained smoothly, the intubation site was fixed. After resuscitation, the rats were allowed to drink 5% glucose solution freely and recover overnight.

[4] = SPIP, n = 3
Protocol: SPIP was performed to determine the absorption and enterocytic uptake of the nanoparticles. The abdominal cavity of SD rats were opened along the midline of the abdomen to expose the intestinal tissue. The jejunum, ileum, duodenum, and colon segments were measured, and incisions were made at both ends of these segments. Both ends of the incision were intubated and fixed using ligation. The wounds were covered with an absorbent cotton soaked in normal saline and maintained at 37 °C. […] After 60 min, the jejunum, ileum, duodenum, and colon were dehydrated to create frozen Sects. (10 μm). These sections were observed using CLSM, and the fluorescence intensity of each section was quantified.

trypsin = target: T1, trypsin (Sus scrofa, UniProt P00761); experiment: Stability in SIF containing 0.2% trypsin (residual drug content); format: in vitro ADME; details: SIF with 0.2% trypsin, 37 °C, first hour
T1 construct: purchased Gibco Invitrogen Co. (Carlsbad, USA)
T1 sequence (P00761 9-231): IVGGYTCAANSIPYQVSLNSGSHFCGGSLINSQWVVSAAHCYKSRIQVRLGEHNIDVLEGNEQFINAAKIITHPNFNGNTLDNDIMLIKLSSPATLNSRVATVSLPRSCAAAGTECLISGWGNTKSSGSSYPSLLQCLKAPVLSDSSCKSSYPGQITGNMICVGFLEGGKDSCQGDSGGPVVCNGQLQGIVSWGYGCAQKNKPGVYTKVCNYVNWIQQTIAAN
Protocol: The effect of trypsin on the stability of αCT/Res-JNPs was also evaluated. αCT/Res-JNPs were centrifuged at 20,000 rpm at 4 °C for 30 min, and then resuspended in SIF. The control group was treated with αCT solution and Res solution. SIFs and trypsin (0.2%, w/v) were mixed at 37 °C for 2 h. At predetermined time points (15, 30, 60, and 120 min), HCl solution (0.1 M) was added to terminate the trypsin activity. Subsequently, dichloromethane was added to dissolve the organic phase contained in the JNP solution. The pH of the solution was then adjusted to 4.0 using hydrochloric acid to dissolve the internal aqueous phase of the JNP. Subsequently, samples were collected, and the contents of residual αCT and Res in the JNP samples were analyzed via HPLC.

[5] = humans and animals; cited from earlier work
[6] = In vitro release behavior by dialysis in SGF (pH 1.2) and PBS (pH 7.4); format: physicochemical
Protocol: The release behavior of αCT and Res in vitro was investigated through dialysis. […] The release medium was SGJ (pH 1.2) containing 2% sodium dodecyl sulfate (w/v) and 30 mL PBS (pH 7.4). The release behavior of drugs from JNP was studied under the conditions of 37 ± 0.5 °C and a rotating speed of 100 rpm. At fixed time points (0, 0.25, 0.5, 0.75, 1.0, 1.5, and 2.0 h in SGJ; 0, 0.25, 0.5, 1.0, 2,0, 4.0, 6.0, 8.0, 10.0, 12.0, and 24.0 h in PBS), 1 mL of release medium was removed, and a blank release medium with the same volume and temperature was supplemented. The samples were filtered through a 0.22-μm microporous membrane, and the supernatant was obtained after high-speed centrifugation. The αCT and Res content were determined using HPLC. The cumulative release percentage was calculated, and a release curve was obtained. The formula for cumulative drug release is shown in the following equation, where Ct is the content of two drugs at each sampling point, V0 is the volume of the release medium, V is the sampling volume, and M0 is the initial dosage:3 Cumulative release%=Ct×V0+∑n=1t-1C×V/M0×100%

in vivo = experiment: in vivo; parameters: species or system SD rats
Protocol: SD rats fasted but drank water freely for 24 h before administration. The dosage of JNP group was 50 µg·kg ^−1 (calculated using αCT), and the other groups were converted according to the ratio of their drug loading to αCT. After intragastric administration, blood samples were collected at 0.25, 0.5, 1, 4, 8, 12, and 24 h. […] PKSolver software (V2.0, China Pharmaceutical University, China) was used to process the data, compare the blood PK parameters of each group after administration, and generate the drug concentration–time curve.

Caco-2 cells [7] = experiment: Mechanism of cell uptake with specific endocytosis inhibitors (flow cytometry); format: cell-based; details: inhibitor 0.5 h, then FITC-αCT-JNP or FITC-αCT/Res-JNP 2 h; uptake without inhibitor = 100%
Protocol: The mechanism of cell uptake was also investigated. Caco-2 cells in the logarithmic growth phase were seeded in 6-well plates at 3 × 10^5 cells/well and incubated for 48 h. Chlorpromazine (10 μg/mL), genistein (54 μg/mL), amiloride (12 μg/mL), and nocodazole (300 μg/mL) were added to the individual wells as inhibitors and were incubated for 0.5 h. FITC-αCT-JNP and FITC-αCT/Res-JNP were then added and the wells were incubated for another 2 h. The cells were then collected using trypsin and centrifuged at 1000 rpm for 5 min. Cells without any inhibitors were used as controls. Fluorescence intensity was detected using flow cytometry (FACSJazz, BD, USA).

HT29/MTX cells = experiment: Cellular uptake of FITC-αCT observed by CLSM; format: cell-based; details: 6 h incubation, 1:20 dilution
Protocol: (§2) Cell culture was carried out according to previously described procedures. HT-29/MTX and Caco-2 cells were seeded into 24-well plates at a density of 1 × 10^5 cells/well and 6 × 10^4 cells/well, respectively. After the cells adhered onto each well, the culture medium was discarded, and three types of samples (FITC-αCT, FITC-αCT-JNP, or FITC-αCT/Res-JNP) at 1:20 dilutions were added. After 6 h, the liquid in the wells was discarded, and the cells were washed with PBS. Each well was fixed with 4% (v/v) paraformaldehyde (0.5 mL) for 20 min, and rinsed with PBS. The cells were then incubated with 0.1% Triton X-100 for 10 min to permeabilize the cell membrane, and then incubated with DAPI for 10 min. After sealing, it was observed using CLSM.

Caco-2 cells [8] = experiment: Cellular uptake of FITC-αCT observed by CLSM; format: cell-based; details: 6 h incubation, 1:20 dilution
Protocol: as §2

animal models = details: cited from earlier work
[9] = PBS pH 7.4, time point not stated
[10] = Sprague-Dawley, rat, in vivo, po
[11] = rats, intragastric, 50 µg·kg^−1 as αCT, plasma FITC-αCT, n = 5

Oc1ccc(/C=C/c2cc(O)cc(O)c2)cc1 [Res, Resveratrol]
cumulative transport [1]: approximately 6% | cumulative transport [2]: approximately 14% | cumulative transport of Res (Caco-2 monolayers): approximately 14% | time after which Res was no longer detected in lymph [3]: 4 h | Ka of Res ([4]; colon): 1.01 ± 0.26 × 10^–2 min^−1 | Peff of Res ([4]; colon): 1.60 ± 0.44 × 10^–3 cm·min^−1 | Ka of Res ([4]; duodenum): 0.99 ± 0.11 × 10^–2 min^−1 | Peff of Res ([4]; duodenum): 1.58 ± 0.18 × 10^–3 cm·min^−1 | Ka of Res ([4]; ileum): 1.91 ± 0.66 × 10^–2 min^−1 | Peff of Res ([4]; ileum): 3.26 ± 1.26 × 10^–3 cm·min^−1 | Ka of Res ([4]; jejunum): 1.55 ± 0.26 × 10^–2 min^−1 | Peff of Res ([4]; jejunum): 2.57 ± 0.46 × 10^–3 cm·min^−1 | residual amount of Res (trypsin): 47.23% | oral bioavailability [5]: almost zero | release of Res in PBS [6, 9]: 86.71% | release rate of Res ([6]; SGF pH 1.2 with 2% sodium dodecyl sulfate, within 1 h): 93.76% | AUC(0-t) (in vivo; [10]): 84.6 ± 3.8 ng·h/mL | Cmax (in vivo; [10]): 92.1 ± 8 ng/mL | MRT last (in vivo; [10]): 1.56 ± 0.52 h | half-life (in vivo; [10]): 1.09 ± 0.07 h | Tmax (in vivo; Sprague-Dawley, rat, in vivo, po, time of peak concentration of Res, rats, intragastric): 0.167 h | AUMCt of Res (in vivo; rats, intragastric, plasma Res, n = 5): 118.18 ± 19.08 ng/ml*h^2

N=C(N)NC(=O)c1nc(Cl)c(N)nc1N [amiloride]
effect of endocytosis inhibitor on uptake rate of JNP by Caco-2 cells (Caco-2 cells [7]): significantly reduced the uptake rate of JNP

CN(C)CCCN1c2ccccc2Sc2ccc(Cl)cc21 [chlorpromazine]
effect of endocytosis inhibitor on uptake rate of JNP by Caco-2 cells (Caco-2 cells [7]): significantly reduced the uptake rate of JNP

O=c1c(-c2ccc(O)cc2)coc2cc(O)cc(O)c12 [genistein]
effect of endocytosis inhibitor on uptake rate of JNP by Caco-2 cells (Caco-2 cells [7]): did not significantly inhibit the cellular uptake of JNP

COC(=O)Nc1nc2ccc(C(=O)c3cccs3)cc2[nH]1 [nocodazole]
effect of endocytosis inhibitor on uptake rate of JNP by Caco-2 cells (Caco-2 cells [7]): did not significantly inhibit the cellular uptake of JNP

FITC-αCT: αCT labeled with fluorescein isothiocyanate (FITC)
cumulative transport [1]: approximately 4% | cumulative transport [2]: approximately 4% | cumulative transport of FITC-αCT (Caco-2 monolayers): approximately 3% | cellular uptake of FITC-αCT (green fluorescence, CLSM) (HT29/MTX cells): no obvious green fluorescence | cellular uptake of FITC-αCT (green fluorescence, CLSM) (Caco-2 cells [8]): no obvious green fluorescence

α-Cobrotoxin [αCT]
time after which αCT was no longer detected in lymph [3]: 6 h | effect on pain sensitivity (animal models; high dose 100 μg·kg^−1, intraperitoneal injection): significantly enhance pain sensitivity | effect on pain threshold and action ability (animal models; low dose, animal models): improve the pain threshold and action ability | Ka of αCT ([4]; colon): 0.85 ± 0.14 × 10^–2 min^−1 | Peff of αCT ([4]; colon): 1.34 ± 0.23 × 10^–3 cm·min^−1 | Ka of αCT ([4]; duodenum): 0.81 ± 0.11 × 10^–2 min^−1 | Peff of αCT ([4]; duodenum): 1.27 ± 0.19 × 10^–3 cm·min^−1 | Ka of αCT ([4]; ileum): 0.91 ± 0.03 × 10^–2 min^−1 | Peff of αCT ([4]; ileum): 1.44 ± 0.05 × 10^–3 cm·min^−1 | Ka of αCT ([4]; jejunum): 0.98 ± 0.05 × 10^–2 min^−1 | Peff of αCT ([4]; jejunum): 1.56 ± 0.10 × 10^–3 cm·min^−1 | residual amount of αCT (trypsin): 25.60% | release of αCT in PBS [6, 9]: 67.89% | cumulative release of αCT ([6]; SGF pH 1.2, 2 h, 37 °C): approximately 40.17% | t1/2 of αCT (in vivo; rats, intragastric): 0.17 ± 0.03 h | time of peak concentration of αCT (in vivo; rats, intragastric): about 30 min | AUCt of αCT (in vivo; [11]): 67.65 ± 17.91 ng·h/mL | AUMCt of αCT (in vivo; [11]): 112.44 ± 12.97 ng/ml*h^2 | Cmax of αCT (in vivo; [11]): 26.85 ± 3.00 ng/mL | Tmax of αCT (in vivo; [11]): 0.5 h | t1/2β of αCT (in vivo; [11]): 2.69 ± 0.36 h
